Data on three compounds can be found in patent publication US8778938B2, “Hepatitis C virus inhibitors” (priority 2010, dated 2014).

Assay [1] has as its system HCV 1a genotype replicon. Description: HCV replicon assay, qRT-PCR (HCV RNA detection), genotype 1a replicon EC50. Type of assay: cell-based. To be noted: Hepatitis C virus, read-out: 1a EC50. (In general: Replicon systems follow genome replication, usually without infectious particles.)
The test system of assay [2] is HCV 1b genotype replicon. Briefly: HCV replicon assay, qRT-PCR (HCV RNA detection), genotype 1b replicon EC50. To be noted: Hepatitis C virus, read-out: 1b EC50. Type of assay: cell-based. The text has this:
HCV replicon cell lines (kindly provided by R. Bartenschlager) isolated from colonies as described by Lohman et al. (Lohman et al. (1999) Science 285: 110-113, expressly incorporated by reference in its entirety) and used for all experiments. The HCV replicon has the nucleic acid sequence set forth in EMBL Accession No.: AJ242651, the coding sequence of which is from nucleotides 1801 to 8406.
The coding sequence of the published HCV replicon was synthesized and subsequently assembled in a modified plasmid pBR322 (Promega, Madison, Wis.) using standard molecular biology techniques. […]
EC50 values of single agent compounds were determined by HCV RNA detection using quantitative RT-PCR, according to the manufacturer's instructions, with a TAQMAN® One-Step RT-PCR Master Mix Reagents Kit (Cat #AB 4309169, Applied Biosystems) on an ABI Model 7500 thermocycler. EC50 values of combinations are similarly determined by HCV RNA detection using quantitative RT-PCR. The TAQMAN primers to use for detecting and quantifying HCV RNA obtained from Integrated DNA Technologies. HCV RNA is normalized to GAPDH RNA levels in drug-treated cells, which is detected and quantified using the Human GAPDH Endogenous Control Mix (Applied Biosystems, AB 4310884E). […] Chemical agent cytotoxicity is evaluated using an MTS assay according to the manufacturer's directions (Promega). […]

In the case of `COC(=O)N[C@H](C(=O)N1CCC[C@H]1c1ncc(-c2ccc(-c3ccc(-c4cnc([C@@H]5C[C@H](C6CC6)CN5C(=O)[C@@H](NC(=O)OC)C(C)C)[nH]4)cc3)cc2)[nH]1)C(C)C` [Compound A83], the EC50 (as a rule, the concentration that produces a half-maximal response) in assay [1] stood at 70 pM.

In the case of `COC(=O)N[C@H](C(=O)N1C[C@@H](C2CC2)C[C@H]1c1ncc(-c2ccc(-c3ccc(-c4cnc([C@@H]5C[C@H](C6CC6)CN5C(=O)[C@@H](NC(=O)OC)C(C)C)[nH]4)cc3)cc2)[nH]1)C(C)C` [Compound A229], the EC50 in assay [2] is 87 pM.

`COC(=O)N[C@H](C(=O)N1CCC[C@H]1c1nc(-c2ccc(-c3ccc(-c4c[nH]c([C@@H]5C[C@@]6(CCCO6)CN5C(=O)[C@@H](NC(=O)OC)C(C)C)n4)cc3)cc2)c[nH]1)C(C)C` [Compound 83]: the EC50 in assay [2] is 19 pM.
